± gives the expanded uncertainty stated by the source.
Assay: xn = mol fraction of the nth substance listed
Settings: Constant-volume piezometry

CCCCC [pentane] + CCCO
Settings	mass density [kg/m3]
533.15 K, 7168 kPa, Fluid (supercritical or subcritical phases), x1 = 0.8	234.59 ± 1.2
533.15 K, 7364 kPa, Fluid (supercritical or subcritical phases), x1 = 0.8	245.22 ± 1.2
533.15 K, 7629 kPa, Fluid (supercritical or subcritical phases), x1 = 0.2	378.44 ± 1.9
533.15 K, 7638 kPa, Fluid (supercritical or subcritical phases), x1 = 0.8	258.44 ± 1.3
533.15 K, 7786 kPa, Fluid (supercritical or subcritical phases), x1 = 0.2	383.24 ± 1.9
533.15 K, 7963 kPa, Fluid (supercritical or subcritical phases), x1 = 0.8	272.4 ± 1.4
533.15 K, 8071 kPa, Fluid (supercritical or subcritical phases), x1 = 0.9	281.87 ± 1.4
533.15 K, 8098 kPa, Fluid (supercritical or subcritical phases), x1 = 0.2	391.08 ± 2
533.15 K, 8423 kPa, Fluid (supercritical or subcritical phases), x1 = 0.8	288.24 ± 1.4
533.15 K, 8569 kPa, Fluid (supercritical or subcritical phases), x1 = 0.9	301.54 ± 1.5
533.15 K, 8748 kPa, Fluid (supercritical or subcritical phases), x1 = 0.8	299.05 ± 1.5
533.15 K, 9002 kPa, Fluid (supercritical or subcritical phases), x1 = 0.9	312.17 ± 1.6
533.15 K, 9374 kPa, Fluid (supercritical or subcritical phases), x1 = 0.2	418.49 ± 2.1
533.15 K, 9413 kPa, Fluid (supercritical or subcritical phases), x1 = 0.8	315.21 ± 1.6
533.15 K, 10061 kPa, Fluid (supercritical or subcritical phases), x1 = 0.9	333.87 ± 1.7
533.15 K, 10217 kPa, Fluid (supercritical or subcritical phases), x1 = 0.8	333.69 ± 1.7
533.15 K, 10835 kPa, Fluid (supercritical or subcritical phases), x1 = 0.8	345.21 ± 1.7
533.15 K, 11530 kPa, Fluid (supercritical or subcritical phases), x1 = 0.9	353.95 ± 1.8
533.15 K, 12119 kPa, Fluid (supercritical or subcritical phases), x1 = 0.8	361.76 ± 1.8
533.15 K, 13530 kPa, Fluid (supercritical or subcritical phases), x1 = 0.2	470.12 ± 2.4
533.15 K, 17294 kPa, Fluid (supercritical or subcritical phases), x1 = 0.9	407.1 ± 2
533.15 K, 18236 kPa, Fluid (supercritical or subcritical phases), x1 = 0.8	418.01 ± 2.1
533.15 K, 19667 kPa, Fluid (supercritical or subcritical phases), x1 = 0.2	509.31 ± 2.6
533.15 K, 29155 kPa, Fluid (supercritical or subcritical phases), x1 = 0.8	466.47 ± 2.4
533.15 K, 29696 kPa, Fluid (supercritical or subcritical phases), x1 = 0.2	546.72 ± 2.8
533.15 K, 39686 kPa, Fluid (supercritical or subcritical phases), x1 = 0.8	495.86 ± 2.5
533.15 K, 44516 kPa, Fluid (supercritical or subcritical phases), x1 = 0.2	580.98 ± 2.9
543.15 K, 1370 kPa, Gas, x1 = 0.8	22.5 ± 0.07
543.15 K, 1634 kPa, Gas, x1 = 0.2	24.9 ± 0.08
543.15 K, 2088 kPa, Gas, x1 = 0.8	36.65 ± 0.11
543.15 K, 3070 kPa, Gas, x1 = 0.8	58.36 ± 0.18
543.15 K, 3378 kPa, Gas, x1 = 0.2	52.95 ± 0.16
543.15 K, 3671 kPa, Gas, x1 = 0.8	73.72 ± 0.23
543.15 K, 3909 kPa, Fluid (supercritical or subcritical phases), x1 = 0.9	83.3 ± 0.42
543.15 K, 4468 kPa, Gas, x1 = 0.2	91.32 ± 0.29
543.15 K, 4745 kPa, Fluid (supercritical or subcritical phases), x1 = 0.8	106.3 ± 0.54
543.15 K, 5031 kPa, Fluid (supercritical or subcritical phases), x1 = 0.2	114.24 ± 0.59
543.15 K, 5063 kPa, Fluid (supercritical or subcritical phases), x1 = 0.9	123.23 ± 0.63
543.15 K, 5339 kPa, Fluid (supercritical or subcritical phases), x1 = 0.9	133.99 ± 0.68
543.15 K, 5679 kPa, Fluid (supercritical or subcritical phases), x1 = 0.2	150.2 ± 0.77
543.15 K, 5755 kPa, Fluid (supercritical or subcritical phases), x1 = 0.8	140.17 ± 0.71
543.15 K, 6004 kPa, Fluid (supercritical or subcritical phases), x1 = 0.9	163.8 ± 0.83
543.15 K, 6026 kPa, Fluid (supercritical or subcritical phases), x1 = 0.2	175.44 ± 0.92
543.15 K, 6054 kPa, Fluid (supercritical or subcritical phases), x1 = 0.8	155.89 ± 0.8
543.15 K, 6187 kPa, Fluid (supercritical or subcritical phases), x1 = 0.2	189.45 ± 0.98
543.15 K, 6358 kPa, Fluid (supercritical or subcritical phases), x1 = 0.8	169.62 ± 0.87
543.15 K, 6471 kPa, Fluid (supercritical or subcritical phases), x1 = 0.2	219.88 ± 1.1
543.15 K, 6471 kPa, Fluid (supercritical or subcritical phases), x1 = 0.8	175.86 ± 0.89
543.15 K, 6570 kPa, Fluid (supercritical or subcritical phases), x1 = 0.9	189.27 ± 0.96
543.15 K, 6584 kPa, Fluid (supercritical or subcritical phases), x1 = 0.8	180.65 ± 0.92
543.15 K, 6716 kPa, Fluid (supercritical or subcritical phases), x1 = 0.2	245.23 ± 1.3
543.15 K, 6834 kPa, Fluid (supercritical or subcritical phases), x1 = 0.2	258.94 ± 1.3
543.15 K, 6836 kPa, Fluid (supercritical or subcritical phases), x1 = 0.8	192.97 ± 0.98
543.15 K, 6846 kPa, Fluid (supercritical or subcritical phases), x1 = 0.9	202.18 ± 1
543.15 K, 6875 kPa, Fluid (supercritical or subcritical phases), x1 = 0.2	262.64 ± 1.4
543.15 K, 6963 kPa, Fluid (supercritical or subcritical phases), x1 = 0.2	272.09 ± 1.4
543.15 K, 7154 kPa, Fluid (supercritical or subcritical phases), x1 = 0.2	290.25 ± 1.5
543.15 K, 7246 kPa, Fluid (supercritical or subcritical phases), x1 = 0.9	220.47 ± 1.1
543.15 K, 7269 kPa, Fluid (supercritical or subcritical phases), x1 = 0.8	213.64 ± 1.1
543.15 K, 7363 kPa, Fluid (supercritical or subcritical phases), x1 = 0.2	306.52 ± 1.6
543.15 K, 7405 kPa, Fluid (supercritical or subcritical phases), x1 = 0.8	219.4 ± 1.1
543.15 K, 7419 kPa, Fluid (supercritical or subcritical phases), x1 = 0.2	310.74 ± 1.6
543.15 K, 7511 kPa, Fluid (supercritical or subcritical phases), x1 = 0.2	318.45 ± 1.6
543.15 K, 7520 kPa, Fluid (supercritical or subcritical phases), x1 = 0.9	232.83 ± 1.2
543.15 K, 7591 kPa, Fluid (supercritical or subcritical phases), x1 = 0.9	236.29 ± 1.2
543.15 K, 7689 kPa, Fluid (supercritical or subcritical phases), x1 = 0.9	240.69 ± 1.2
543.15 K, 7747 kPa, Fluid (supercritical or subcritical phases), x1 = 0.8	234.47 ± 1.2
543.15 K, 7760 kPa, Fluid (supercritical or subcritical phases), x1 = 0.9	244 ± 1.2
543.15 K, 7964 kPa, Fluid (supercritical or subcritical phases), x1 = 0.2	340.91 ± 1.7
543.15 K, 7983 kPa, Fluid (supercritical or subcritical phases), x1 = 0.8	245.1 ± 1.2
543.15 K, 8042 kPa, Fluid (supercritical or subcritical phases), x1 = 0.2	343.7 ± 1.7
543.15 K, 8294 kPa, Fluid (supercritical or subcritical phases), x1 = 0.8	258.31 ± 1.3
543.15 K, 8708 kPa, Fluid (supercritical or subcritical phases), x1 = 0.8	272.26 ± 1.4
543.15 K, 8845 kPa, Fluid (supercritical or subcritical phases), x1 = 0.9	281.73 ± 1.4
